{"source": "paper PMC5761210", "about": "(Journal of Pharmaceutical Analysis, 2014)", "key": {"[1]": {"conditions": "no reference given; cited from earlier work"}, "[2]": {"conditions": "EFSA report; cited from earlier work"}, "Salmonella typhimurium": {"tested_on": "Salmonella typhimurium", "conditions": "cited from earlier work"}, "[3]": {"type": "in vitro ADME, human", "conditions": "for Qmax,24 h (maximal absorption: receptor fluid + epidermis + dermis after 24 h): percentage of the applied dose"}, "[4]": {"conditions": "vehicle 50% Glycerol, mean±RSD (%)"}}, "note": "Like-named read-outs stand apart in the source and are kept apart here."}
{"smiles": "CC(=O)CO", "note": "[acetol, 1-hydroxypropan-2-one]", "values": [{"measurement": "log Pow", "setting": "[1]", "value": "−0.78"}, {"measurement": "genotoxic in-vivo", "setting": "[2]", "value": "not likely"}, {"measurement": "Ames tests (in-vitro mutagenic properties)", "setting": "Salmonella typhimurium", "value": "positive"}, {"measurement": "dose applied cumulatively found in the receptor chamber", "setting": "[3]; after 24 h, over the investigated vehicles", "value": "1.3–10.0%"}, {"measurement": "Dm (diffusion coefficient)", "setting": "[3]; vehicle 50% EtOH, mean±RSD (%)", "value": "1.49±41.8 10^−4 cm^2/h"}, {"measurement": "Kp (permeability coefficient)", "setting": "[3]; vehicle 50% EtOH, mean±RSD (%)", "value": "3.91±45.1 10^−3 cm/h"}, {"measurement": "Lag time", "setting": "[3]; vehicle 50% EtOH, mean±RSD (%)", "value": "2.14 ± 51.8", "unit": "h"}, {"measurement": "Qmax,24 h (maximal absorption: receptor fluid + epidermis + dermis after 24 h)", "setting": "[3]; vehicle 50% EtOH, mean±RSD (%)", "value": "7.28±29.0", "unit": "%"}, {"measurement": "Dm (diffusion coefficient)", "setting": "[3]; [4]", "value": "0.73±22.4 10^−4 cm^2/h"}, {"measurement": "Kp (permeability coefficient)", "setting": "[3]; [4]", "value": "0.78±40.3 10^−3 cm/h"}, {"measurement": "Lag time", "setting": "[3]; [4]", "value": "4.39 ± 28.7", "unit": "h"}, {"measurement": "Qmax,24 h (maximal absorption: receptor fluid + epidermis + dermis after 24 h)", "setting": "[3]; [4]", "value": "1.75±39.0", "unit": "%"}, {"measurement": "Dm (diffusion coefficient)", "setting": "[3]; vehicle 50% PG, mean±RSD (%)", "value": "1.07±103.0 10^−4 cm^2/h"}, {"measurement": "Kp (permeability coefficient)", "setting": "[3]; vehicle 50% PG, mean±RSD (%)", "value": "1.30±79.0 10^−3 cm/h"}, {"measurement": "Lag time", "setting": "[3]; vehicle 50% PG, mean±RSD (%)", "value": "5.65 ± 70.9", "unit": "h"}, {"measurement": "Qmax,24 h (maximal absorption: receptor fluid + epidermis + dermis after 24 h)", "setting": "[3]; vehicle 50% PG, mean±RSD (%)", "value": "2.94±76.0", "unit": "%"}, {"measurement": "Jss (steady-state flux)", "setting": "[3]; vehicle H2O (pure water), 5% acetol (m/V), 500 µL infinite dose, mean±RSD (%)", "value": "68.3±21.2", "unit": "µg/cm^2/h"}, {"measurement": "Dm (diffusion coefficient)", "setting": "[3]; vehicle H2O, mean±RSD (%)", "value": "1.28±49.6 10^−4 cm^2/h"}, {"measurement": "Kp (permeability coefficient)", "setting": "[3]; vehicle H2O, mean±RSD (%)", "value": "1.30±21.2 10^−3 cm/h"}, {"measurement": "Lag time", "setting": "[3]; vehicle H2O, mean±RSD (%)", "value": "2.95 ± 71.0", "unit": "h"}, {"measurement": "Qmax,24 h (maximal absorption: receptor fluid + epidermis + dermis after 24 h)", "setting": "[3]; vehicle H2O, mean±RSD (%)", "value": "3.37±11.7", "unit": "%"}, {"measurement": "Kp (permeability coefficient)", "setting": "[3]; vehicle PG (propylene glycol/water 50/50, V/V)", "value": 0.0013, "unit": "cm/h"}, {"measurement": "Kp (permeability coefficient)", "setting": "[3]; vehicle glycerol (glycerol/water 50/50, V/V)", "value": 0.000778, "unit": "cm/h"}, {"measurement": "Kp (permeability coefficient)", "setting": "[3]; vehicle water", "value": 0.0013, "unit": "cm/h"}]}
